Measured values reported in patent US12509431B2, “1,4-dihydroquinazolinone compounds and uses thereof” (Edgewise Therapeutics, Inc., priority 2022, dated 2025).

Tests used:
Assay type in all cases: biochemical
Conditions in all cases: Table 8
[1] = system: Rabbit Skeletal myofibrils (rabbit psoas muscle); experiment: Myofibril ATPase assay (PK/LDH NADH-coupled), skeletal myofibrils
Protocol: (§1) Myofibril ATPase assays are known in the art to be useful in evaluating small molecules for the treatment of HCM and other cardiac indications. Myosin ATPase activity is assessed by using a coupled reaction system, in which ADP generated by the myosin ATPase function is coupled to the disappearance of NADH through the pyruvate kinase/lactate dehydrogenase (PK-LDH) system. ATPase activity produces ADP, which is used as a substrate for PK to produce pyruvate and regenerate ATP. The pyruvate is then used as a substrate by LDH to oxidize NADH to NAD+. The rate of the reaction is monitored through the time-dependent disappearance of NADH using absorbance at 340 nm, which, when the couple system is in stoichiometric excess, is directly correlated to the ATPase activity of the myosin. Inhibition of ATPase activity by the assayed compounds is indicated by a reduced rate of NADH loss, relative to vehicle-treated controls, over the experimental time window. Rabbit Skeletal and Porcine Ventricle are the primary sources of myofibril material.
(§2) Materials: The following stock solutions and reagents were used in the Myofibril ATPase Assay:
(§3) Stock Solutions of pCa buffer. Combine PIPES, CaCl2), and EGTA solutions with water. Adjust pH to 7.0 and bring final volume to 100 mL.
(§4) Buffer A & Buffer B. Prepare buffers A and B according to the table below.
(§5) Myofibril ATPase Assay Procedure: BSA, ATP, NADH, PEP, and DTT solutions were thawed at room temperature, then transferred to ice. Pellet-frozen myofibrils were transferred with approximately twice the required volume into a sufficiently large tube and capped. Myofibrils were thawed by rolling in a water bath for approximately 15 min at room temperature and cooled on ice. Buffers A and B were prepared by adjusting volumes as necessary for required number of wells and stored on ice. 0.5 μL of the compounds to be assayed were added into wells. 25 μL of Buffer A was dispensed into the wells, followed by 25 μL of Buffer B. The wells were measured for absorbance at 340 nm, using a kinetic protocol in which the wells are read every 1.5-2 min for 75 min. Assay data analysis was performed using a python script that filtered the raw data to retain those points falling between a starting and ending time and between a maximum and minimum absorbance, then used the filtered time-domain 340 nm absorbance data in each well to calculate a slope via linear regression analysis in units of mAU/min. Compound slopes were normalized between 100% and 0% activity, where 100% represented the slope of wells containing only compound vehicle, and fit to a 4-parameter logistic model. In addition to the fit parameters, the EC25% is calculated, relative to the 100% normalized value. In the case of inhibitors, EC50% is also calculated, if available. Fit parameters, calculated effective concentrations, filtered raw data, and calculated slopes were exported, in addition to compound-specific graphs of normalized ATPase activity versus concentration in μM.
Skeletal Myofibril Isolation:
Myofibrils from various animals and tissue types were acquired from a variety of sources: rabbit psoas muscle was purchased from Pel-Freez Biologicals (Rogers, AR) and porcine cardiac muscle was purchased from Exemplar Genetics. All myofibrils were prepared using a method based upon those described in Herrmann et al. (1993) and summarized here. Minced tissue was homogenized for 50 sec with a Polytron homogenizer into 10 volumes (relative to weight in grams) of Isolation Buffer A (50 mM Tris, pH 8.0, 0.1 M potassium acetate, 5 mM KCl, 2 mM DTT, 5 mM EDTA, 0.5% v/v Triton X-100) supplemented with 0.1 mM PMSF, 10 μM leupeptin, 5 μM pepstatin, and 0.5 mM sodium azide. The myofibrils were recovered by centrifugation (Beckman Allegra 6R, 1200 g, 10 min) and resuspended in 10 volumes Isolation Buffer B (Buffer A above without protease inhibitors or sodium azide). The myofibrils were further homogenized as before and recovered by centrifugation. […]

[2] = biological target: T1, Porcine Ventricle myofibrils (left ventricle of Yucatan minipigs) (Sus scrofa, UniProt P79293); experiment: Myofibril ATPase assay (PK/LDH NADH-coupled), ventricle myofibrils
T1 construct: Myofibrils from porcine cardiac muscle was isolated from the left ventricle of Yucatan minipigs; tissue Exemplar Genetics; host or cells: left ventricle of Yucatan minipigs
Protocol: as §1, §2, §3, §4, §5
Cardiac Myofibril Isolation:
Myofibrils from porcine cardiac muscle was isolated from the left ventricle of Yucatan minipigs. Myofibrils were prepared using a method based upon those described in Herrmann et al. (1993) and summarized here. Minced tissue was homogenized for 50 sec with a Polytron homogenizer into 10 volumes (relative to weight in grams) of Isolation Buffer A (75 mM KCl, 10 mM Imidazole, 2 mM MgCl2, 2 mM EGTA, 1 mM NaN3, 1% v/v Triton X-100) supplemented with 4 mM Phosphocreatine, 1 mM ATP, 50 mM BDM, 1 mM DTT, 1 mM Benzamide HCl, 0.1 mM PMSF, 10 μM leupeptin, 5 μM pepstatin, and 10 mM EDTA. The myofibrils were recovered by centrifugation (Beckman Allegra 6R, 1200 g, 15 min) and resuspended in 10 volumes Isolation Buffer B (Buffer A above without supplemental reagents). The myofibrils were further homogenized described above and recovered by centrifugation for 7 mins. Cellular membranes and debris were removed by 3 washes in Isolation Buffer B, centrifuging each as before. […]

Porcine Atria myofibrils = experiment: Myofibril ATPase assay (PK/LDH NADH-coupled), atria myofibrils
Protocol: as §5

T1 sequence (P79293 whole entry): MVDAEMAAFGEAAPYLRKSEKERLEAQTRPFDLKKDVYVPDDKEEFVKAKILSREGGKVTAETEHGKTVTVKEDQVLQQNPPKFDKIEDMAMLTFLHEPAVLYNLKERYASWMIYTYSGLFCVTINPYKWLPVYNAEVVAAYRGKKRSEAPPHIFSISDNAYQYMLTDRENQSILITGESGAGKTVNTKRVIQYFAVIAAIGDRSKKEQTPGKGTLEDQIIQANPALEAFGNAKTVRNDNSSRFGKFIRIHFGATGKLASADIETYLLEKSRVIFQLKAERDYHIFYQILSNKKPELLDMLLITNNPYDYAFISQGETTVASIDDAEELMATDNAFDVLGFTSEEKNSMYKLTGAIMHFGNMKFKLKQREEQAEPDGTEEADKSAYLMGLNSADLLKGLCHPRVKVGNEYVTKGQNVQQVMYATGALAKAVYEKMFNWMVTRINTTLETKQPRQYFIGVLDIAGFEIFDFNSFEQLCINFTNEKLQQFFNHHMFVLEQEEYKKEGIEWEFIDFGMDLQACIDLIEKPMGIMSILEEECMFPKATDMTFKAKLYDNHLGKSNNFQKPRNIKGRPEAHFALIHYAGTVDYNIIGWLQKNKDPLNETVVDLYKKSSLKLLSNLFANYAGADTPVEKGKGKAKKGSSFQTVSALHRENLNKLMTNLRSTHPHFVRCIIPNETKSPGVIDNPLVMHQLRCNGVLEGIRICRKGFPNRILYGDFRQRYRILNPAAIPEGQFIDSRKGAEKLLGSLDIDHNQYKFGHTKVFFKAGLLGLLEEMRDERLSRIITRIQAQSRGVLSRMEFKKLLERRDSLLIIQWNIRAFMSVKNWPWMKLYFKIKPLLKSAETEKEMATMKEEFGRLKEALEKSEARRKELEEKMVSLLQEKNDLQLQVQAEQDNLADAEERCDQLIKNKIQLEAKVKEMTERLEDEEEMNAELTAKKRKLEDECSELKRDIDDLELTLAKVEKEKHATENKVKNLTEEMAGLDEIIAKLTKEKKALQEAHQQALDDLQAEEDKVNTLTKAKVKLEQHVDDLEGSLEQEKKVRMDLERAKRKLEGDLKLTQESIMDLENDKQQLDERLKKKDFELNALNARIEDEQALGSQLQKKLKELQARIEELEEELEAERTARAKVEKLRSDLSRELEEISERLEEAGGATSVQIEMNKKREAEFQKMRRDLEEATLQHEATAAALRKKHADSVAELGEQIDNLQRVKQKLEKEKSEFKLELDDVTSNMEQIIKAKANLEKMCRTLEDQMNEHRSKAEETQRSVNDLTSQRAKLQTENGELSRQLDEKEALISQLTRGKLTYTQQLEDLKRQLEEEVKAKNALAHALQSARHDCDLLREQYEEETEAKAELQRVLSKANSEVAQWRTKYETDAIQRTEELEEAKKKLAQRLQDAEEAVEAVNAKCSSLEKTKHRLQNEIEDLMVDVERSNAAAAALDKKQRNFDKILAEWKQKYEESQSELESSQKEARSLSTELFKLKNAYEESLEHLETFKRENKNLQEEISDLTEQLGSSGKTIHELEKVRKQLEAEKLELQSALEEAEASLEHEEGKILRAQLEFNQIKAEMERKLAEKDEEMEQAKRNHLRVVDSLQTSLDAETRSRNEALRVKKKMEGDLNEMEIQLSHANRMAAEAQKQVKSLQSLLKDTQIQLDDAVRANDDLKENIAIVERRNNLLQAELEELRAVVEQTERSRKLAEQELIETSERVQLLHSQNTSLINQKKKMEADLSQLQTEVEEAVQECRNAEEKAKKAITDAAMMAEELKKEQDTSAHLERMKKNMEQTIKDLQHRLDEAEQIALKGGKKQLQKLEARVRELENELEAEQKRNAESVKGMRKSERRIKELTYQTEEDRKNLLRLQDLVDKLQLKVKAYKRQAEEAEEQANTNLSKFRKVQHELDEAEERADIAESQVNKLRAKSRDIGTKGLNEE

Rabbit Psoas IC25 [1] [nM] | Porcine Ventricle IC25 [2] [nM] | Porcine Atria IC25 (Porcine Atria myofibrils) [nM] | SMILES
21.07 | 1558 | 210 | C[C@H](NC(=O)CN1C(=O)Nc2ccc(F)c(F)c2[C@@H]1C)c1ccc(F)cc1F (relative stereo) [Compound B231, 2-[(4S*)-5,6-Difluoro-4-methyl-2-oxo-1,4-dihydroquinazolin-3-yl]-N-[(1S)-1-(2,4-difluorophenyl)ethyl]acetamide]
32.8 | 396.3 | 40 | C[C@H](NC(=O)CN1C(=O)Nc2ccc(F)c(F)c2[C@H]1C)c1ccc(F)cc1F (relative stereo) [Compound B232, 2-[(4R*)-5,6-Difluoro-4-methyl-2-oxo-1,4-dihydroquinazolin-3-yl]-N-[(1S)-1-(2,4-difluorophenyl)ethyl]acetamide]
12.4 | 34.7 | 40 | Cc1cc(C#N)nnc1C(C)NC(=O)CN1Cc2c(ccc(F)c2F)NC1=O (single isomer, unassigned) [Compound B23]
4823 | 2494 | 700 | Cc1ccnnc1C(C)NC(=O)CN1Cc2c(ccc(F)c2F)NC1=O (single isomer, unassigned) [Compound B25]
1252 | 948 | 580 | Cc1cc([C@H](C)NC(=O)CN2Cc3c(ccc(F)c3F)NC2=O)ncc1C#N (single isomer, unassigned) [Compound B35]
100000 | 96660 | 100000 | Cc1cnncc1C(C)NC(=O)CN1Cc2c(ccc(F)c2F)NC1=O (single isomer, unassigned) [Compound B47]
100000 | 7534 | 90 | CC(NC(=O)CN1Cc2c(ccc(F)c2F)NC1=O)c1cc(C#N)c(F)cn1 (single isomer, unassigned) [Compound B53]
7017 | 9364 | 43940 | CC(C)C[C@H](C(=O)N[C@H](C)c1ccc(F)cc1F)N1Cc2cc(F)ccc2NC1=O (single isomer, unassigned) [Compound B67]
3174 | 298.7 | 610 | Cc1cc(C(C)NC(=O)CN2Cc3c(ccc(F)c3F)NC2=O)ncc1F (single isomer, unassigned) [Compound B69]
100000 | 100000 | 1240 | CC(NC(=O)CN1Cc2c(ccc(F)c2F)NC1=O)c1cc2c(cn1)OCCN2C (single isomer, unassigned) [Compound B74]
5359 | 346.5 | 390 | O=C(CN1Cc2c(ccc(F)c2F)NC1=O)NC1COCc2cc(F)ccc21 (single isomer, unassigned) [Compound B76]
1110 | 2048 | 190 | O=C(CN1Cc2c(ccc(F)c2F)NC1=O)NC1COc2ccc(F)cc2C1 (single isomer, unassigned) [Compound B87]
2863 | 79130 | 2450 | CC1c2ccccc2NC(=O)N1CC(=O)N[C@@H](CO)c1ccc(F)cc1F (single isomer, unassigned) [Compound B200, N-[(1R)-1-(2,4-difluorophenyl)-2-hydroxyethyl]-2-[(4R*)-4-methyl-2-oxo-1,4-dihydroquinazolin-3-yl]acetamide]
100000 | 100000 | 100000 | O=C(CN1Cc2c(ccc(F)c2F)NC1=O)N[C@H]1CCc2cc(F)cnc21 (single isomer, unassigned) [Compound B351]
4450 | 2360 | 610 | Cc1nc([C@@H](C)NC(=O)CN2Cc3c(ccc(F)c3F)NC2=O)ncc1C#N (single isomer, unassigned) [Compound B352]
20.1 | 59.9 | 90 | Cc1nc(C#N)ncc1[C@@H](C)NC(=O)CN1Cc2c(ccc(F)c2F)NC1=O [Compound B1]
5739 | 7734 | 960 | Cc1nc(C#N)ncc1[C@H](C)NC(=O)CN1Cc2c(ccc(F)c2F)NC1=O [Compound B2]
100000 | 52510 | 34810 | Cc1nsc([C@H](C)NC(=O)CN2Cc3c(ccc(F)c3F)NC2=O)n1 [Compound B3]
131.8 | 116.1 | 70 | N#Cc1cnc2c(c1)COC[C@H]2NC(=O)CN1Cc2c(ccc(F)c2F)NC1=O [Compound B4]
4565 | 100000 | 100000 | N#Cc1cnc2c(c1)COC[C@@H]2NC(=O)CN1Cc2c(ccc(F)c2F)NC1=O [Compound B5]
123.2 | 148.3 | 70 | O=C(CN1Cc2c(ccc(F)c2F)NC1=O)N[C@@H]1COc2cc(F)cnc21 [Compound B6]
29140 | 2786 | 450 | O=C(CN1Cc2c(ccc(F)c2F)NC1=O)N[C@H]1COc2cc(F)cnc21 [Compound B7]
1018 | 603.9 | 430 | Cc1cc(C#N)cnc1[C@@H](C)NC(=O)CN1Cc2c(ccc(F)c2F)NC1=O [Compound B8]
22.4 | 37.9 | 40 | Cc1cc(C#N)cnc1[C@H](C)NC(=O)CN1Cc2c(ccc(F)c2F)NC1=O [Compound B9]
29080 | 8204 | 100000 | C[C@@H](NC(=O)CN1Cc2c(F)cc(C#N)cc2NC1=O)c1ccc(C#N)cc1F [Compound B10]
49640 | 100000 | 100000 | C[C@H](NC(=O)CN1Cc2c(F)cc(C#N)cc2NC1=O)c1ccc(C#N)cc1F [Compound B11, N-[(1S)-1-(4-Cyano-2-fluorophenyl)ethyl]-2-(7-cyano-5-fluoro-2-oxo-1,4-dihydroquinazolin-3-yl)acetamide]
100000 | 100000 |  | COc1cnc([C@H](C)NC(=O)CN2Cc3cc(F)ccc3NC2=O)c(F)c1 [Compound B179]
